Results reported in patent US20060241082A1, “Modulating vesicular monoamine transporter trafficking and function: a novel approach for the treatment of parkinson's disease” (priority 2002, published 2006).

How the values were obtained:
[1] = Locomotor activity and rearing of treated rats; type: in vivo, rat; details: MPD 5-40 mg/kg s.c.
[2] = Striatal tissue DA content of treated rats (HPLC); type: in vivo, rat; details: rats
Protocol: On the day of the assay, frozen tissue samples were thawed, sonicated for 3-5 s in tissue buffer (0.05 M sodium phosphate/0.03 M citric acid buffer with 15% methanol (v/v); pH 2.78), and centrifuged for 15 min at 22,000×g. Tissue pellets were retained and protein determined according to the method of Lowry et al. (1951). The supernatant was centrifuged a second time for 15 min at 22,000×g. 20 μl of supernatant were injected onto a high performance liquid chromatograph system coupled to an electrochemical detector (+0.73 V) for separation and quantitation of dopamine levels using the method of Chapin et al. (1986).

VMAT-2 [3] = molecular target: T1, VMAT-2 (Rattus norvegicus, UniProt Q01827); test: Direct in vitro application of MPD to vesicular [3H]DA uptake; type: biochemical; design: purified striatal vesicles prepared from treated rats; from tissue; host or cells: striatum of male Sprague-Dawley rats (synaptic vesicles; P2, P3, S3 fractions)
VMAT-2 [4] = test: VMAT-2 immunoreactivity in striatal subcellular fractions of treated mice (Western blot); type: in vivo, mouse; details: methamphetamine 4 x 10 mg/kg s.c., 1 h
Protocol: Fresh striatal tissue was homogenized in ice-cold 0.32 M sucrose and centrifuged (800×g for 12 min: 4° C.).
VMAT-2 antibody was kindly donated by Dr. John Haycock at the Louisiana State University, New Orleans, La. (Antibody can be purchased from Chemicon, Temecula, Calif. and the reagent # is AB1767). Binding of VMAT-2 antibody was performed using 60 μl of whole synaptosomal, plasmalemmal membrane or vesicle subcellular fractions. Samples were added to 20 μl of loading buffer (final concentration: 2.25% SDS, 18% glycerol, 180 mM Tris Base (pH 6.8), 10% β-mercaptoethanol and bromophenol blue). Approximately 60 μg P2, 40 μg protein P3, and 20 μg protein S3 were loaded per well in a 10% SDS-polyacrylamide gel. Following electrophoresis, samples were transferred to polyvinylidene difluoride hybridization transfer membrane (New England Nuclear (NEN), Boston, Mass.). All subsequent incubation steps were performed at room temperature while shaking. Each membrane was first blocked for 2 h in 100 ml of Tris buffer saline with tween (TBST; 250 mM NaCl, 50 mM tris pH 7.4 and 0.05% tween 20) containing 5% nonfat dry milk. Each membrane was then incubated with anti-VMAT-2 antibody (1:4000 dilution) in 13 ml of TBST with 5% milk for 1 h and then washed 5 times (2×1 min wash: 3×5 min wash) in 70 ml TBST with 5% milk. The membranes then were incubated for 1 h with the goat F (ab′)2 anti-rabbit immunoglobulin antibody (Biosource International, Camarillo, Calif.) at a 1:2000 dilution in TBST with 5% milk. This secondary antibody had been affinity-isolated, preabsorbed with human immunoglobulin, and conjugated with horseradish peroxidase. The membranes were then washed 5 times (2×1 min wash: 3×5 min) with 70 ml TBST, and then developed with Renaissance Western Blot Chemiluminescence's Reagent Pus (NEN, Boston, Mass.), according to manufacturer specification. […] Bands on blots were quantified by densitometry measuring net intensity (the sum of the background-subtracted pixel values in the band area) using Kodak 1D image-analysis software.

VMAT-2 [5] = molecular target: VMAT-2 (Mus musculus, UniProt Q8BRU6); test: [3H]DHTBZ binding in striatal vesicles prepared from treated mice; details: methamphetamine 4 x 10 mg/kg s.c., 2-h intervals, 1 and 24 h after treatment
Protocol: Binding of [^3H]DHTBZ was performed essentially as described by Brown et al. (2001a and 2001b) Briefly, 200 μl of the synaptic vesicles preparation (˜6 μg of protein) was incubated in wash buffer in the presence of [^3H]DHTBZ (2 nM final concentration) for 10 min at 25° C. The reaction was terminated by addition of 1 ml cold wash buffer and rapid filtration through Whatman GF/P filters soaked in 0.5% polyethylenimine. Filters were washed three times with ice-cold wash buffer. Nonspecific binding was determined by co incubation with 20 μM TBZ. All protein concentrations were determined by Bio-Rad protein assay (Bio-Rad Inc.)

VMAT-2 [6] = molecular target: T1, VMAT-2; design: purified striatal vesicles prepared from treated rats; from tissue; host or cells: striatum of male Sprague-Dawley rats (synaptic vesicles; P2, P3, S3 fractions); details: rats, multiple METH; Brown et al., 2000; cited from earlier work
[7] = molecular target: T2, plasmalemmal DA transporter (DAT) (Rattus norvegicus, UniProt P23977); details: rats, cited from earlier work
T2 construct: Uptake of [^3H]DA was determined in striatal synaptosomes; from tissue; host or cells: striatum of male Sprague-Dawley rats (synaptosomes, P2)
T2 sequence (P23977 whole entry): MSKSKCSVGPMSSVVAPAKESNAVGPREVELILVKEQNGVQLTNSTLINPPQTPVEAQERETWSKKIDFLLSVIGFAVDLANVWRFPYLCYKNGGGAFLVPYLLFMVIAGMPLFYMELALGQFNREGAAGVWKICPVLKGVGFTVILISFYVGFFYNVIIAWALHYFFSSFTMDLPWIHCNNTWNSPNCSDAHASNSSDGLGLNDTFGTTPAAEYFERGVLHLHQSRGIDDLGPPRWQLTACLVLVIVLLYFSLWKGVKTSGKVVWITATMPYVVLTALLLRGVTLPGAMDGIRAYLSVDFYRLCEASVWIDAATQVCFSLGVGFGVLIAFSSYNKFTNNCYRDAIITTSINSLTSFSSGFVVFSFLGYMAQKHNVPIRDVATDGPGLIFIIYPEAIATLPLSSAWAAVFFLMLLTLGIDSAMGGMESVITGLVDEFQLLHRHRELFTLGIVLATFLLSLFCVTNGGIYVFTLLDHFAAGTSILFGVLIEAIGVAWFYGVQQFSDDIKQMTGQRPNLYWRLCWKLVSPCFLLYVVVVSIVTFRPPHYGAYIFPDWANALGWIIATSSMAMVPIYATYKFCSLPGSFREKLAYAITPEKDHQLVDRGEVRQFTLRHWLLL

T1 sequence (Q01827 whole entry): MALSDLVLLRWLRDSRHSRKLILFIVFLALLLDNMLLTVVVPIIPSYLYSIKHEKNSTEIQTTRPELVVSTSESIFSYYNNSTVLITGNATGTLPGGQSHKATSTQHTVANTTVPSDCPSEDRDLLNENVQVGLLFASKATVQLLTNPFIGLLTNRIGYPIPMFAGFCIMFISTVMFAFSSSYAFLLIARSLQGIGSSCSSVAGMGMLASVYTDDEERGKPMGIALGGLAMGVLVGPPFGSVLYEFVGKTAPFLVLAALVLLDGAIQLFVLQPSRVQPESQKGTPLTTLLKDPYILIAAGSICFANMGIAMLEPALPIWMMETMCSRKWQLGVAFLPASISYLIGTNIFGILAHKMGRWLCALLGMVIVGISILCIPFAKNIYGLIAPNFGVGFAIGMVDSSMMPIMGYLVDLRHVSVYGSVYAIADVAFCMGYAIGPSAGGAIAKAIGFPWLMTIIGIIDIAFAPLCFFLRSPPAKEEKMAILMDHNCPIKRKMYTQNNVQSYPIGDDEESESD
Chain of VMAT-2 (Mus musculus, UniProt Q8BRU6) (Q8BRU6 whole entry): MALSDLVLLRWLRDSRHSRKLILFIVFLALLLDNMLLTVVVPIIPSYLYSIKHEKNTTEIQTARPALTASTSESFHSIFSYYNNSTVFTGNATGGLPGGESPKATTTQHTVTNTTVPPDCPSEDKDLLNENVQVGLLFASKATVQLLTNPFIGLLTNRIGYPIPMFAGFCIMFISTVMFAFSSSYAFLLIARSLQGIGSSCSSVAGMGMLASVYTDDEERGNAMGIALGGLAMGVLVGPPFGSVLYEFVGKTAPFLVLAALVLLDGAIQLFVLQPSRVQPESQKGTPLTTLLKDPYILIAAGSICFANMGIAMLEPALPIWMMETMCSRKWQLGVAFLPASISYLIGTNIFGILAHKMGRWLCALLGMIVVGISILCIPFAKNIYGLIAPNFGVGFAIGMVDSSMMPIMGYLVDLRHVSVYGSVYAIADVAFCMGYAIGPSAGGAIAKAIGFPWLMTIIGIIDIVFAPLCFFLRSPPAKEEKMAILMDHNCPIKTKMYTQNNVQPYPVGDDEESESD

## COC(=O)C(c1ccccc1)C1CCCCN1 (stereo not shown) [MPD, methylphenidate]
[1]
  locomotor activity and rearing as compared with controls: increased
[2]; 3 injections of MPD 5 mg/kg s.c., 1 h after the last MPD injection
  total tissue DA concentrations: without altering
[2]; MPD 5 mg/kg s.c.
  total DA levels 7 d after MPD per se: did not alter
[2]; MPD 5 mg/kg s.c. 1 h after the last METH (4 x 7.5 mg/kg s.c.)
  effect of post-treatment with a single MPD injection on the 7-d striatal DA depletions caused by METH: partially reversed
[2]; MPD 5 mg/kg s.c. at 1 and 3 h, or 1, 3 and 5 h after the last METH
  effect of two or three MPD injections on the persistent METH-induced striatal DA depletions: completely prevented
VMAT-2 [3]; in vitro direct application, n=3
  IC50: 19.8 ± 4 µM
VMAT-2 [3]; in vitro, concentrations of 1 nM to 1 μM
  vesicular [3H]DA uptake on direct application of MPD: without effect

## CN[C@@H](C)Cc1ccccc1 (racemic) [METH, methamphetamine]
VMAT-2 [4]
  VMAT-2 immunoreactivity in the membrane-associated fraction: increasing
  VMAT-2 immunoreactivity in the vesicle preparation: decreased
  total VMAT-2 immunoreactivity in synaptosomes: little effect
VMAT-2 [5]
  [3H]DHTBZ binding: rapidly decreased
[2]; METH 4 x 7.5 mg/kg s.c., 2-h intervals, vs saline/saline
  striatal DA levels 7 d after treatment: decreased
[2]; multiple METH, 6 h after drug treatment
  decrease in whole tissue DA content: 60%
VMAT-2 [6]
  deficit in vesicular DA uptake: ≈ 65%
[7]; METH 4 x 10 mg/kg s.c., 2-h intervals, 1 h, Kokoshka 1998, Fleckenstein 1999, Metzger 2000
  magnitude of the decrease in plasmalemmal DA uptake: 70-80%
[7]; multiple METH, Kokoshka et al., 1998
  recovery of plasmalemmal DA uptake after 24 h: ≈ 60 % of control values
